Assay results reported in patent US20150023954A1, “POTENTIATING ANTIBODY-INDUCED COMPLEMENT-MEDIATED CYTOTOXICITY VIA PI3K INHIBITION” (MEMORIAL SLOAN-KETTERING CANCER CENTER, priority 2012, published 2015).
Entries after “also recorded” stand apart in the source; their conditions may differ.

How the values were obtained:
tumor cells = assay: Cell growth experiments with MEK inhibitors and low dose PGNX; type: cell-based; conditions: PGNX less than 0.0001 μg/m; AZD6244 0.1 μM-5.0 μM; data not shown
Excerpt: (§1) WST-1 assay. […] The Student t test was used for statistical analysis.

Colo205Luc cells [1] = assay: Cell growth assay, Colo205; conditions: for 5B1 cytotoxicity: all inhibitor doses tested, overnight with mAb 5B1 and HuC 5%; for tumor cell (Colo205) growth: high concentration of antibody, better than either inhibitor alone (FIG. 5C, 5D); for PGNX induced tumor cell cytotoxicity: highest PGNX and inhibitor dose tested; for tumor cell growth induced by low dose PGNX and complement: low dose PGNX (e.g., 0.0001 μg/ml), HuC′ 50 μl/ml
Protocol: (§4) WST-1 assay. WST-1 cell proliferation assay kit was used for detection of the extent of cellular proliferation according to the company's manual. Briefly, 20,000 cells in 100 μl of culture media as defined above were plated in a 96 well flat bottom plate and incubated at 37° C. in 5% CO2 overnight. Antibody doses between 0.02 ρg to 5 μg in 1 μl of defined culture media were added to each well and incubated for 1 hour at 37° C., 5% CO2; 4-10 μl of human serum complement (Quidel Corp. San Diego, Calif.) was then added to each well and incubated overnight. For assays testing the impact of PI3K inhibitor, BEZ235 (Chemdea, Ridgewood, N.J.) at 0.005, 0.5 or 5.0 μg/ml were added accordingly at same time when mAb was added. WST-1 agent (Roche Applied Science, Indianapolis Ind.) was added at 1:10 ratio at the end of incubation, and OD (Optical density) was acquired by reading the plates at 415 nm 4 hours later. The Student t test was used for statistical analysis.

CHLA136Luc cells [2] = assay: WST-1 cell growth assay, CHLA136Luc; type: cell-based, human; conditions: for higher mAb dose (plus complement) cytotoxicity / low mAb dose (plus complement) growth acceleration: all inhibitor dose levels, with PGNX, 18 hours
Excerpt: as §1

p-Akt [3] = assay: Western blot of p-Akt in CHLA136Luc cell extracts; type: cell-based, human; conditions: BEZ235; cells treated with PGNX 0.001 μg/m for 4 hours
Protocol: (§2) Western blot. 1×10^6 Cells were plated into 6 well plates and incubated overnight. Cells were then treated with BEZ235, mAbs and human sera complement at the dose indicated for 4 hours. At the end of incubation, cells were collected and lysed with lysis buffer from Cell Signal (Danvers, Mass.), which contains protease inhibitor cocktail and phosphatase inhibitor cocktail (Calbiochem, Philadelphia, Pa.), each at 1:100 dilution (Cocktails:lysis buffer). The cell lysates were then quantitated using Bradford assay (Bio-Rad, Hercules, Calif.) according to that company's manual: 30 μg of cell lysate protein from each sample were running on 7.5% of Tris-HCL gel (Bio-Rad) and transferred to a PVDF membrane. Membrane was then blocked with Pierce blocking buffer overnight at 4° C., probed with indicated mAbs at 1:1000 dilution overnight at 4° C. and HRP-goat anti-rabbit-IgG antibody at 1:1000 for 1 hour. The membrane was washed with PBS-T (0.1% Tween-20+PBS) 5 minutes on a shaker 5 times after each incubating and then developed using Amersham™ ECL™ Prime Western Blotting Detection Reagent (GE Healthcare, Piscataway, N.J.). Imaging was acquired by scanning the membrane on the FujiFilm LAS-3000 Imager.

p-PRAS40 = assay: Western blot of p-PRAS40 in CHLA136Luc cell extracts; type: cell-based, human; conditions: BEZ235; cells treated with PGNX 0.001 μg/m for 4 hours
Protocol: as §2

DaudiLuc cells = assay: WST-1 cell growth assay, DaudiLuc; type: cell-based, human
Excerpt: as §1

p-Akt [4] = assay: Western blot and immunofluorescent staining of p-Akt in Colo205 cells; type: cell-based
Protocol: as §2

Colo205Luc cells [5] = system: Colo205Luc cells
Protocol: as §4

CHLA136Luc cells [6] = assay: IV CHLA136Luc tumor challenge in SCID mice: survival and tumor growth by luciferase imaging; type: in vivo, CB17 SCID mice
Protocol: Animals. CB17 SCID mice (Taconic) 5-8 weeks old were housed 5 to a cage. The Memorial Sloan Kettering Cancer Center Institutional Animal Care and Use Committee (IACUC) approved all protocols and procedures.
Tumor Challenge. Mice were placed under a heat lamp for 3 minutes and immobilized in a mouse restrainer; 0.5 million CHLA136Luc cells in 100 μl were injected into the tail vein using a BD insulin syringe with 28 gauge needle.
(§3) mAb administration. Mice were treated with murine mAbs 3F8, PGNX, R24, against GD2, GM2, GD3 and Rituxan against CD20. Control mice, typically 2 cages of 5 mice, were treated identically, receiving the same volume of PBS at the same intervals.
Imaging. Mice were anaesthetized using isoflurane and injected with 300 μg of D-Luciferin Firefly (Caliper LifeScience, Hopkinton, Mass.). They were imaged 10 minutes later using the IVIS200 in vivo imaging system (Caliper Life Science) over periods of time ranging up to 3 minutes using the software program “Living Image 3.0” (Caliper Life Science). Values are reported as photons/second.
Statistical analysis. Overall survival was defined as the time from IV tumor cell challenge to date of death or day 160. Survival distributions were generated using Kaplan-Meier methodology (Kaplan, “Nonparametric estimation from incomplete observations”, J. Am. Stat. Assoc., 1958, 53:457-81) and comparisons between treatment group and control (PBS) were made via the […] (using Graphpad Prism 5).

Hs445 = assay: WST-1 cell growth assay, Hs445; type: cell-based, human; conditions: low dose, six experiments
Excerpt: as §1

CD20 = assay: In vivo experiments targeting CD20 (Rituxan): tumor growth; parameters: species or system SCID mice; conditions: data not shown
Protocol: as §3

[7] = system: CHLA136Luc, Lan-1-Luc, H524, Hs445, Daudi cells; assay: In vitro cell growth (WST-1) with mAbs and human complement on selected cell lines (FIG. 3); type: cell-based
Excerpt: as §1

[8] = BEZ235 alone, 25 or 12.5 mg/kg by gavage daily for 2 weeks

**Q.** With CC(=O)Nc1cccc(-n2c(=O)n(C3CC3)c(=O)c3c(Nc4ccc(I)cc4F)n(C)c(=O)c(C)c32)c1 [GSK202011] as the molecule, how does the “cytotoxicity of PGNX at sublytic low dosages” value (tumor cells) read?
**A.** The value was “enhanced”.

**Q.** Which “effect on proliferation compared to Wortmannin” value (Colo205Luc cells [1]) does the source give for Cn1c(=O)n(-c2ccc(C(C)(C)C#N)cc2)c2c3cc(-c4cnc5ccccc5c4)ccc3ncc21 [BEZ235] here?
**A.** Its value is “greater effect”.

**Q.** What about the “accelerated cell growth induced by low dose 5B1” value (Colo205Luc cells [1]; 5B1 0.001-0.01 μg/ml (BEZ235), 0.001 μg/ml (Wortmannin)) of the same molecule?
**A.** Its value is “inhibited”.

**Q.** What about the “effect on proliferation compared to Wortmannin” value (CHLA136Luc cells [2]) of the same molecule?
**A.** Its value is “greater effect”.

**Q.** And the “cell growth in vitro” value (CHLA136Luc cells [2]; BEZ235)?
**A.** Its value is “decreased”.

**Q.** And the “mAb cytotoxicity and low-dose growth acceleration” value (CHLA136Luc cells [2]; BEZ235 with mAbs R24 and PGNX (Table 2))?
**A.** Its value is “Comparable results”.

**Q.** What about the mAb cytotoxicity (CHLA136Luc cells [2]; all BEZ235 doses tested, combined with 3F8 at various doses plus complement, vs each treatment alone) of the same molecule?
**A.** Its mAb cytotoxicity is “significantly enhanced; also recorded: increased”.

**Q.** What about the “accelerated cell growth induced by low dose mAb” value (CHLA136Luc cells [2]; combined with low-dose 3F8 (0.001 μg/ml) plus complement) of the same molecule?
**A.** Its value is “significantly inhibited; also recorded: prevented”.

**Q.** What about the p-Akt expression (p-Akt [3]) of the same molecule?
**A.** Its p-Akt expression is “inhibited”.

**Q.** And the p-PRAS40 expression (p-PRAS40)?
**A.** Its p-PRAS40 expression is “inhibited”.

**Q.** What about the “cell growth in vitro” value (DaudiLuc cells; BEZ235) of the same molecule?
**A.** Its value is “decreased”.

**Q.** And the mAb cytotoxicity (DaudiLuc cells; all BEZ235 doses tested, combined with Rituxan at various doses plus complement, vs each treatment alone)?
**A.** Its mAb cytotoxicity is “significantly enhanced; also recorded: increased”.

**Q.** And the “accelerated cell growth induced by low dose mAb” value (DaudiLuc cells; combined with low-dose Rituxan (0.0001 μg/ml) plus complement)?
**A.** Its value is “significantly inhibited; also recorded: prevented”.

**Q.** What about the p-Akt expression (p-Akt [4]; BEZ235 1 μM alone) of the same molecule?
**A.** Its p-Akt expression is “inhibited; also recorded: decreased p-AKT”.

**Q.** What about the “treatment time giving complete inhibition of p-Akt expression” value (p-Akt [4]; BEZ235 at 1 μM) of the same molecule?
**A.** Its value is no less than 2 h.

**Q.** And the “BEZ235 dose giving complete inhibition of p-AKT expression” value (p-Akt [4]; cells treated for 4 hrs)?
**A.** Its value is no less than 0.5 µM.

**Q.** And the “cytotoxicity of Colo205luc cells” value (Colo205Luc cells [5])?
**A.** The value was “significantly enhanced”.

**Q.** And the CHLA136Luc growth (CHLA136Luc cells [6]; [8])?
**A.** Its CHLA136Luc growth is “significantly reduced”.

**Q.** What about the survival (CHLA136Luc cells [6]; [8]) of the same molecule?
**A.** Its survival is “prolonged survival”.

**Q.** And the “high mAb dose induced growth inhibition” value (CHLA136Luc cells [6]; BEZ235 by gavage with high dose mAb)?
**A.** The value was “increased”.

**Q.** What about the “low dose mAb (PGNX) induced early tumor growth acceleration” value (CHLA136Luc cells [6]; BEZ235 by gavage with low-dose PGNX) of the same molecule?
**A.** Its value is “eliminated; also recorded: preventing; also recorded: prevented”.

**Q.** What about the “survival of challenged SCID mice” value (CHLA136Luc cells [6]; BEZ235 with mAbs, compared with high-dose PGNX and 3F8 alone) of the same molecule?
**A.** The value was “significantly increasing survival”.

**Q.** How did the “cytotoxicity of PGNX at sublytic low dosages” value (tumor cells) turn out when Cn1cnc2c(F)c(Nc3ccc(Br)cc3Cl)c(C(=O)NOCCO)cc21 [AZD6244] was run?
**A.** Its value is “enhanced”.

**Q.** Which 5B1 cytotoxicity (Colo205Luc cells [1]) does the source give for NC1(c2ccc(-c3nc4ccn5c(=O)[nH]nc5c4cc3-c3ccccc3)cc2)CCC1 [MK2206] here?
**A.** Its 5B1 cytotoxicity is “enhanced”.

**Q.** What about the “tumor cell (Colo205) growth” value (Colo205Luc cells [1]) of the same molecule?
**A.** Its value is “inhibited”.

**Q.** What about the “PGNX induced tumor cell cytotoxicity” value (Colo205Luc cells [1]) of the same molecule?
**A.** The value was “enhanced”.

**Q.** And the “tumor cell growth induced by low dose PGNX and complement” value (Colo205Luc cells [1])?
**A.** The value was “dramatically inhibited”.

**Q.** What about the “higher mAb dose (plus complement) cytotoxicity” value (CHLA136Luc cells [2]) of the same molecule?
**A.** The value was “increased”.

**Q.** And the “low mAb dose (plus complement) growth acceleration” value (CHLA136Luc cells [2])?
**A.** Its value is “prevented”.

**Q.** rituximab [Rituxan] was tested. Which “experiments with significantly accelerated growth” value (Hs445) did it give?
**A.** The value was 4.

**Q.** And the tumor growth (CD20; doses as low as 0.001 mcg)?
**A.** The tumor growth was “slight delay of tumor growth”.

**Q.** What about the accelerated tumor growth (CD20; doses down to 0.001 mcg) of the same molecule?
**A.** Its accelerated tumor growth is “not seen”.

**Q.** What about the cell growth (DaudiLuc cells; low dose, single experiment) of the same molecule?
**A.** The cell growth was “significantly accelerated growth”.

**Q.** And the “tumor growth in vitro” value ([7]; high mAb doses, with complement)?
**A.** The value was “inhibited tumor growth”.

**Q.** And the complement-independent tumor inhibition ([7]; highest mAb doses, absence of complement)?
**A.** Its complement-independent tumor inhibition is “detected”.

**Q.** And the “tumor cell growth in vitro” value ([7]; low mAb doses, exclusively in the presence of complement)?
**A.** Its value is “accelerated tumor cell growth”.

**Q.** With Nc1cc(C(F)(F)F)c(-c2cc(N3CCOCC3)nc(N3CCOCC3)n2)cn1 [BKM120] as the molecule, how does the 5B1 cytotoxicity (Colo205Luc cells [1]) read?
**A.** The 5B1 cytotoxicity was “enhanced”.

**Q.** What about the “tumor cell (Colo205) growth” value (Colo205Luc cells [1]) of the same molecule?
**A.** The value was “inhibited”.

**Q.** What about the “PGNX induced tumor cell cytotoxicity” value (Colo205Luc cells [1]) of the same molecule?
**A.** The value was “enhanced”.

**Q.** And the “tumor cell growth induced by low dose PGNX and complement” value (Colo205Luc cells [1])?
**A.** The value was “dramatically inhibited”.

**Q.** What about the “higher mAb dose (plus complement) cytotoxicity” value (CHLA136Luc cells [2]) of the same molecule?
**A.** The value was “increased”.

**Q.** What about the “low mAb dose (plus complement) growth acceleration” value (CHLA136Luc cells [2]) of the same molecule?
**A.** The value was “prevented”.
